Data as given in the NIST ThermoML archive (doi:10.1007/s10765-016-2089-2).

Legend:
[1] = wn = mass fraction of the nth substance listed; settings: 100 kPa, Liquid; for electrical conductivity: Alternating current cell with electrodes; for viscosity: Capillary tube (Ostwald / Ubbelohde) method; for mass density: Vibrating tube method
[2] = refractive index (Na D-line) (dimensionless); wn = mass fraction of the nth substance listed; settings: 100 kPa, Liquid, Standard Abbe refractometry

O=S(=O)([O-])[O-].[Cu+2] [copper sulfate] + O
Settings | electrical conductivity, [1] [S/m] | mass density, [1] [kg/m3] | refractive index, [2] | viscosity, [1] [mPa·s]
288.15 K, w1 = 0.0101 | 0.492 | 1009.6 | 1.3353 | 1.188
288.15 K, w1 = 0.0202 | 0.851 | 1019.98 | 1.3372 | 1.263
288.15 K, w1 = 0.0305 | 1.17 | 1030.49 | 1.3391 | 1.344
288.15 K, w1 = 0.0409 | 1.47 | 1041.68 | 1.3411 | 1.371
288.15 K, w1 = 0.0514 | 1.76 | 1052.54 | 1.3429 | 1.404
288.15 K, w1 = 0.0621 | 2.03 | 1063.7 | 1.3449 | 1.472
288.15 K, w1 = 0.0729 | 2.29 | 1074.95 | 1.3469 | 1.591
288.15 K, w1 = 0.0838 | 2.54 | 1086.38 | 1.3488 | 1.649
288.15 K, w1 = 0.0948 | 2.77 | 1098.22 | 1.3508 | 1.744
293.15 K, w1 = 0.0101 | 0.548 | 1008.63 | 1.3348 | 1.083
293.15 K, w1 = 0.0202 | 0.943 | 1019.09 | 1.3367 | 1.132
293.15 K, w1 = 0.0305 | 1.31 | 1029.38 | 1.3384 | 1.191
293.15 K, w1 = 0.0409 | 1.63 | 1040.53 | 1.3405 | 1.199
293.15 K, w1 = 0.0514 | 1.96 | 1051.49 | 1.3424 | 1.273
293.15 K, w1 = 0.0621 | 2.26 | 1062.26 | 1.3444 | 1.31
293.15 K, w1 = 0.0729 | 2.55 | 1073.67 | 1.3463 | 1.393
293.15 K, w1 = 0.0838 | 2.82 | 1084.84 | 1.3483 | 1.452
293.15 K, w1 = 0.0948 | 3.09 | 1096.44 | 1.3504 | 1.528
298.15 K, w1 = 0.0101 | 0.61 | 1007.43 | 1.3343 | 0.937
298.15 K, w1 = 0.0202 | 1.05 | 1017.84 | 1.3362 | 1.001
298.15 K, w1 = 0.0305 | 1.45 | 1028.06 | 1.3379 | 1.018
298.15 K, w1 = 0.0409 | 1.83 | 1039 | 1.34 | 1.068
298.15 K, w1 = 0.0514 | 2.18 | 1049.67 | 1.3418 | 1.123
298.15 K, w1 = 0.0621 | 2.52 | 1060.66 | 1.3437 | 1.142
298.15 K, w1 = 0.0729 | 2.84 | 1071.85 | 1.3456 | 1.227
298.15 K, w1 = 0.0838 | 3.16 | 1083.16 | 1.3476 | 1.288
298.15 K, w1 = 0.0948 | 3.44 | 1094.5 | 1.3495 | 1.36
303.15 K, w1 = 0.0101 | 0.664 | 1005.98 | 1.3338 | 0.835
303.15 K, w1 = 0.0202 | 1.14 | 1016.35 | 1.3356 | 0.892
303.15 K, w1 = 0.0305 | 1.59 | 1026.77 | 1.3373 | 0.918
303.15 K, w1 = 0.0409 | 2 | 1037.41 | 1.3392 | 0.952
303.15 K, w1 = 0.0514 | 2.38 | 1048.04 | 1.3411 | 1.014
303.15 K, w1 = 0.0621 | 2.75 | 1058.96 | 1.343 | 1.029
303.15 K, w1 = 0.0729 | 3.1 | 1070.1 | 1.3449 | 1.098
303.15 K, w1 = 0.0838 | 3.44 | 1081.38 | 1.3468 | 1.122
303.15 K, w1 = 0.0948 | 3.76 | 1092.64 | 1.3488 | 1.203
308.15 K, w1 = 0.0101 | 0.719 | 1004.32 | 1.3331 | 0.758
308.15 K, w1 = 0.0202 | 1.24 | 1014.65 | 1.3349 | 0.8
308.15 K, w1 = 0.0305 | 1.72 | 1024.97 | 1.3367 | 0.835
308.15 K, w1 = 0.0409 | 2.16 | 1035.64 | 1.3387 | 0.857
308.15 K, w1 = 0.0514 | 2.57 | 1046.35 | 1.3405 | 0.883
308.15 K, w1 = 0.0621 | 2.97 | 1057.16 | 1.3426 | 0.948
308.15 K, w1 = 0.0729 | 3.36 | 1068.13 | 1.3445 | 0.99
308.15 K, w1 = 0.0838 | 3.74 | 1078.76 | 1.3463 | 1.022
308.15 K, w1 = 0.0948 | 4.09 | 1091.27 | 1.3481 | 1.089
